Measurements: patent US20180071317A1, “USE OF AGENTS THAT ALTER THE PERITUMORAL ENVIRONMENT FOR THE TREATMENT OF CANCER” (SERVICIO ANDALUZ DE SALUD, priority 2011, published 2018)

How the values were obtained:
[1] = system: fibroblasts (PHF) co-cultured with tumor cells of human cervix carcinoma (KB); experiment: Marker expression (IHC) in PHF co-cultured with KB tumor cells; assay type: cell-based; conditions: co-culture with KB; SP 1 μM + antagonist 1 μM; 48 h;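 also: percentage of PHF fibroblasts showing expression of each marker, cultured in fresh blood plasma from a healthy human donor, six replicates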
Protocol: (§1) All cultures were maintained 48 hours, following which the same cells were included in paraffin blocks for subsequent analysis of the expression of different markers by immunohistochemistry (see Example 1). […] All experiments were carried out sixfold. Analyzed markers in fibroblast cells (stromal cells) were: TGF-α, TGF-β1, TGF-β2, TGF-β3, SPARC, MMP-3, MMP-7, MMP-9, MMP-11, MMP-13 and MMP-14.

[2] = system: fibroblasts (PHF) co-cultured with tumor cells of human colon adenocarcinoma (SW-403); experiment: Marker expression (IHC) in PHF co-cultured with SW-403 tumor cells; assay type: cell-based; conditions: co-culture with SW-403; SP 1 μM + antagonist 1 μM; 48 h
Protocol: All cultures were maintained 48 hours, following which the same cells were included in paraffin blocks for subsequent analysis of the expression of different markers by immunohistochemistry (see Example 1). The primary antibodies used to perform immunohistochemical assays and their concentration are detailed in Example 2. All experiments were carried out sixfold. Analyzed markers in fibroblast cells (stromal cells) were: TGF-α, TGF-β1, TGF-β2, TGF-β3, SPARC, MMP-3, MMP-7, MMP-9, MMP-11, MMP-13 and MMP-14.

[3] = system: fibroblasts (PHF) co-cultured with tumor cells, thyroid carcinoma (reference A-427); experiment: Marker expression (IHC) in PHF co-cultured with thyroid carcinoma tumor cells; assay type: cell-based, human; conditions: co-culture with thyroid carcinoma cells; SP 1 μM + antagonist 1 μM; 48 h;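 also: grown in fresh plasma from a healthy human donor, read-out is percent of fibroblasts positive for each marker, compared with fibroblasts cultured alone, run in six replicates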
Protocol: as §1

[4] = system: fibroblasts (PHF) co-cultured with tumor cells, thyroid carcinoma; experiment: as above; assay type: cell-based, human; conditions: co-culture with thyroid carcinoma cells; SP 1 μM + antagonist 1 μM; 48 h
Protocol: as §1

[5] = system: fibroblasts (PHF) co-cultured with human melanoma tumor cells (MEL-HO1); experiment: Marker expression (IHC) in PHF co-cultured with MEL-HO1 tumor cells; assay type: cell-based; conditions: PHF co-cultured with MEL-HO1 + SP + NK1 antagonist;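 also: values are the percentage of fibroblasts positive for each marker, with cultures grown in fresh healthy-donor blood plasma and each experiment run six times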
Protocol: as §1

[6] = system: fibroblasts (PHF) co-cultured with tumor cells of human gastric adenocarcinoma (23132/87); experiment: Marker expression (IHC) in PHF co-cultured with 23132/87 tumor cells; assay type: cell-based; conditions: co-culture with 23132/87; SP 1 μM + antagonist 1 μM; 48 h;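 also: cultures grown in fresh plasma from a healthy human donor, values give the percentage of PHF fibroblasts positive for the marker, each experiment run in six replicates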
[7] = system: fibroblast cells in co-culture with cells isolated from primary human tumors; experiment: Marker expression (IHC) in fibroblasts co-cultured with primary human tumor cells (colon, pancreatic, lung carcinoma, glioma, multiple myeloma); assay type: cell-based
Protocol: To check that the interaction of the human primary tumor cells with stromal cells, [human fibroblasts,] stimulates the secretion of substances of importance for survival and tumor progression, co-cultures were performed using stromal cells with human fibroblast-tumor cells obtained directly from primary human tumors.
On this occasion, in order to identify, using immunohistochemical techniques, the secretion of substances of importance for the survival and progression of tumors, the following antibodies were used: TGF-α (SAB4502953), TGF-β1 (SAB4502954), TGF-β2 (SAB4502956), TGF-β3 (SAB4502957), SPARC (HPA002989), MMP-3 (HPA007875), MMP-7 (SAB4501894), MMP-9 (SAB4501896), MMP-11 (SAB4501898) MMP-13 (SAB4501900) and MMP-14 (SAB4501901) using specific antibodies against them. All antibodies used were rabbit polyclonal antibodies obtained from Sigma-Aldrich and were used at a concentration of 1/1000 to achieve these immunohistochemical studies. All experiments were carried out sixfold.

[8] = Primary tumor cells (colon carcinoma) co-cultured + fibroblast + SP (1 μM) + NK1 antagonist 1 μM
[9] = co-culture with cells isolated from glioma, SP 1 μM + antagonist 1 μM
[10] = co-culture with cells isolated from lung cancer, SP 1 μM + antagonist 1 μM
[11] = co-culture with cells isolated from multiple myeloma, SP 1 μM + antagonist 1 μM
[12] = co-culture with cells isolated from pancreatic carcinoma, SP 1 μM + antagonist 1 μM

Cc1cc(F)ccc1[C@H]1CNCCN1C(=O)N(C)[C@H](C)c1cc(C(F)(F)F)cc(C(F)(F)F)c1 [Vestipitant]
0%: PHF cells expressing MMP-3 [1] | PHF cells expressing MMP-7 [1] | PHF cells expressing MMP-9 [1] | PHF cells expressing MMP-11 [1] | PHF cells expressing MMP-13 [1] | PHF cells expressing MMP-14 [1] | PHF cells expressing SPARC [1] | PHF cells expressing TGF-α [1] | PHF cells expressing TGF-β1 [1] | PHF cells expressing TGF-β2 [1] | PHF cells expressing TGF-β3 [1] | PHF cells expressing MMP-3 [2] | PHF cells expressing MMP-7 [2] | PHF cells expressing MMP-9 [2] | PHF cells expressing MMP-11 [2] | PHF cells expressing MMP-13 [2] | PHF cells expressing MMP-14 [2] | PHF cells expressing SPARC [2] | PHF cells expressing TGF-α [2] | PHF cells expressing TGF-β1 [2] | PHF cells expressing TGF-β2 [2] | PHF cells expressing TGF-β3 [2] | PHF cells expressing MMP-3 [3] | PHF cells expressing MMP-7 [3] | PHF cells expressing MMP-9 [3] | PHF cells expressing MMP-13 [3] | PHF cells expressing MMP-14 [3] | PHF cells expressing SPARC [3] | PHF cells expressing TGF-α [3] | PHF cells expressing TGF-β1 [3] | PHF cells expressing TGF-β2 [3] | PHF cells expressing TGF-β3 [3] | PHF cells expressing MMP-11 [4] | cells expressing MMP-3 [5] | cells expressing MMP-7 [5] | cells expressing MMP-9 [5] | cells expressing MMP-11 [5] | cells expressing MMP-13 [5] | cells expressing MMP-14 [5] | cells expressing SPARC [5] | cells expressing TGF-α [5] | cells expressing TGF-β1 [5] | cells expressing TGF-β2 [5] | cells expressing TGF-β3 [5] | PHF cells expressing MMP-3 [6] | PHF cells expressing MMP-7 [6] | PHF cells expressing MMP-9 [6] | PHF cells expressing MMP-11 [6] | PHF cells expressing MMP-13 [6] | PHF cells expressing MMP-14 [6] | PHF cells expressing SPARC [6] | PHF cells expressing TGF-α [6] | PHF cells expressing TGF-β1 [6] | PHF cells expressing TGF-β2 [6] | PHF cells expressing TGF-β3 [6] | Percentage of fibroblast cells which expressed MMP-3 [7, 8] | Percentage of fibroblast cells which expressed MMP-7 [7, 8] | Percentage of fibroblast cells which expressed MMP-9 [7, 8] | Percentage of fibroblast cells which expressed MMP-11 [7, 8] | Percentage of fibroblast cells which expressed MMP-13 [7, 8] | Percentage of fibroblast cells which expressed MMP-14 [7, 8] | Percentage of fibroblast cells which expressed SPARC [7, 8] | Percentage of fibroblast cells which expressed TGFα [7, 8] | Percentage of fibroblast cells which expressed TGFβ1 [7, 8] | Percentage of fibroblast cells which expressed TGFβ2 [7, 8] | Percentage of fibroblast cells which expressed TGFβ3 [7, 8] | Percentage of fibroblast cells which expressed MMP-3 [7, 9] | Percentage of fibroblast cells which expressed MMP-7 [7, 9] | Percentage of fibroblast cells which expressed MMP-9 [7, 9] | Percentage of fibroblast cells which expressed MMP-11 [7, 9] | Percentage of fibroblast cells which expressed MMP-13 [7, 9] | Percentage of fibroblast cells which expressed MMP-14 [7, 9] | Percentage of fibroblast cells which expressed SPARC [7, 9] | Percentage of fibroblast cells which expressed TGFα [7, 9] | Percentage of fibroblast cells which expressed TGFβ1 [7, 9] | Percentage of fibroblast cells which expressed TGFβ2 [7, 9] | Percentage of fibroblast cells which expressed TGFβ3 [7, 9] | Percentage of fibroblast cells which expressed MMP-3 [7, 10] | Percentage of fibroblast cells which expressed MMP-7 [7, 10] | Percentage of fibroblast cells which expressed MMP-9 [7, 10] | Percentage of fibroblast cells which expressed MMP-11 [7, 10] | Percentage of fibroblast cells which expressed MMP-13 [7, 10] | Percentage of fibroblast cells which expressed MMP-14 [7, 10] | Percentage of fibroblast cells which expressed SPARC [7, 10] | Percentage of fibroblast cells which expressed TGFα [7, 10] | Percentage of fibroblast cells which expressed TGFβ1 [7, 10] | Percentage of fibroblast cells which expressed TGFβ2 [7, 10] | Percentage of fibroblast cells which expressed TGFβ3 [7, 10] | Percentage of fibroblast cells which expressed MMP-3 [7, 11] | Percentage of fibroblast cells which expressed MMP-7 [7, 11] | Percentage of fibroblast cells which expressed MMP-9 [7, 11] | Percentage of fibroblast cells which expressed MMP-11 [7, 11] | Percentage of fibroblast cells which expressed MMP-13 [7, 11] | Percentage of fibroblast cells which expressed MMP-14 [7, 11] | Percentage of fibroblast cells which expressed SPARC [7, 11] | Percentage of fibroblast cells which expressed TGFα [7, 11] | Percentage of fibroblast cells which expressed TGFβ1 [7, 11] | Percentage of fibroblast cells which expressed TGFβ2 [7, 11] | Percentage of fibroblast cells which expressed TGFβ3 [7, 11] | Percentage of fibroblast cells which expressed MMP-3 [7, 12] | Percentage of fibroblast cells which expressed MMP-7 [7, 12] | Percentage of fibroblast cells which expressed MMP-9 [7, 12] | Percentage of fibroblast cells which expressed MMP-11 [7, 12] | Percentage of fibroblast cells which expressed MMP-13 [7, 12] | Percentage of fibroblast cells which expressed MMP-14 [7, 12] | Percentage of fibroblast cells which expressed SPARC [7, 12] | Percentage of fibroblast cells which expressed TGFα [7, 12] | Percentage of fibroblast cells which expressed TGFβ1 [7, 12] | Percentage of fibroblast cells which expressed TGFβ2 [7, 12] | Percentage of fibroblast cells which expressed TGFβ3 [7, 12]
